Assay results reported in PMC11271627, “Molecular dynamics-guided optimization of BGM0504 enhances dual-target agonism for combating diabetes and obesity” (Scientific Reports, 2024).

Columns and labels:
Human GLP-1R = target: T1, Human GLP-1R (Homo sapiens, UniProt P43220); assay: cAMP accumulation assay, GLP-1R; type: cell-based; details: HEK293 cells; relative to 10 nM GLP-1(7–37) high control; arithmetic mean ± SEM
T1 construct: expressed in transfected cells; host or cells: HEK293 cells
Experimental: (§1) These cells were then resuspended in 5 mL of the assay buffer, and their concentration was determined using a Vi-Cell Counter. […] Samples were subsequently added to the assay plate along with ECHO555. […] A volume of 10 µL of the cell suspension was added to the assay plate, with a density of 1000 cells/well for GLP-1R testing and 2000 cells/well for GIPR testing. The assay plate was then incubated in a 23°C incubator for 30 minutes. A starting concentration of 800 nM was used to prepare the cAMP standard curve, followed by a 4-fold 10-point serial dilution. These serially diluted cAMP standards were added to the assay plate at a volume of 10 µL/well. Subsequently, 10 µL of the cAMP detection solution was added to the assay plate, and the plate was incubated at room temperature for 1 hour, shielded from direct light. […] For data analysis, each data point’s cAMP level (nM) was calculated using the established cAMP standard curve. The percentage activity for each data point was determined using the formula: % Activity = (cAMP level of testing sample - average cAMP level of low control) / ([…] cAMP level of high control - average cAMP level of […] control) × 100%. Additionally, the ‘log(agonist) vs. response – variable slope’ model in GraphPad Prism 5.0 was used to fit the dose-response curve of each sample and calculate the EC50 value.

Human GIPR = target: T2, Human GIPR (Homo sapiens, UniProt P48546); assay: cAMP accumulation assay, GIPR; type: cell-based; details: CHO
T2 construct: expressed in transfected cells; host or cells: CHO cells
T2 sequence (P48546 22-466): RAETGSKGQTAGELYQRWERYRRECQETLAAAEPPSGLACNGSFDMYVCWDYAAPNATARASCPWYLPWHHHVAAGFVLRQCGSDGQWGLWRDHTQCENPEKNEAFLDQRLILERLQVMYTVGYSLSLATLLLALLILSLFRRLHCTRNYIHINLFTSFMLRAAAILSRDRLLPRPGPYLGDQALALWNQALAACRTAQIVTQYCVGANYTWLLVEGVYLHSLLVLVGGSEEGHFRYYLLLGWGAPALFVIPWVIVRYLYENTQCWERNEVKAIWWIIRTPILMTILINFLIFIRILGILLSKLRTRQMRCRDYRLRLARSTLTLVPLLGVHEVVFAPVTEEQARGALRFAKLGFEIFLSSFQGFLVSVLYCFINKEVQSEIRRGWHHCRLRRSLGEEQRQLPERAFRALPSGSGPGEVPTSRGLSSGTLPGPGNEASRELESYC
Experimental: as §1

[1] = target: T3, Human Serum Albumin (HSA) protein (Homo sapiens, UniProt P02768); assay: biochemical; type: binding
T3 construct: purified Human ALB (25–609)-His was immobilized
T3 sequence (P02768 25-609): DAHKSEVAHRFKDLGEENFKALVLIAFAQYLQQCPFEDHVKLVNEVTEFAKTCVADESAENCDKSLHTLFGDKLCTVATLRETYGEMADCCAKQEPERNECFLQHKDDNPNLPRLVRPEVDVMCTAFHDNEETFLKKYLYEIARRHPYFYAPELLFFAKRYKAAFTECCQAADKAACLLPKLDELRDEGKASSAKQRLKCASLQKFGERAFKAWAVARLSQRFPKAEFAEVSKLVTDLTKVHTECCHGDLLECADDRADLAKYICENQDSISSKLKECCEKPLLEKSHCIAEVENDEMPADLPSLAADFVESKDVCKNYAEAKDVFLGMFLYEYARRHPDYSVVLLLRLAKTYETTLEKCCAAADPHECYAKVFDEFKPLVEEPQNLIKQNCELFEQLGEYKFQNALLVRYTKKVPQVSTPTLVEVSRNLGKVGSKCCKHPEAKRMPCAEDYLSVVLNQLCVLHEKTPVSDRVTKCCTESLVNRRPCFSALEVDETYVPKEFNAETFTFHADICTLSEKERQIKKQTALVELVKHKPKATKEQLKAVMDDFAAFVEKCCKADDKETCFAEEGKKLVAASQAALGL
From the text: The buffer used was PBST (PBS with 0.02% Tween 20).

T1 sequence (P43220 24-463): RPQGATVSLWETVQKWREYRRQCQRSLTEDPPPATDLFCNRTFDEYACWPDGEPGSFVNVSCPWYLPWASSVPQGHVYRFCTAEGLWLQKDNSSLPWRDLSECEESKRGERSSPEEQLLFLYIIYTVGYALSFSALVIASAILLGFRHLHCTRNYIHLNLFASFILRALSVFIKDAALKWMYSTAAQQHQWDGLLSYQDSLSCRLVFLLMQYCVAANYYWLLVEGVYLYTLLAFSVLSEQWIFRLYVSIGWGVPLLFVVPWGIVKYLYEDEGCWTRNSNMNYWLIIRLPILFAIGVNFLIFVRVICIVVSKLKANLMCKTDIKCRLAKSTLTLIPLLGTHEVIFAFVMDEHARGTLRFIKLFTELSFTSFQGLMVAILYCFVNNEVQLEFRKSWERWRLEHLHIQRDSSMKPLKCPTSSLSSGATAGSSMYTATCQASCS

| SMILES | Emax (Human GLP-1R) | Emax (Human GIPR) | Kd [1] |
| --- | --- | --- | --- |
| CC[C@H](C)[C@H](NC(=O)[C@H](CC(C)C)NC(=O)[C@H](Cc1c[nH]c2ccccc12)NC(=O)[C@H](CCC(N)=O)NC(=O)[C@@H](NC(=O)[C@H](Cc1ccccc1)NC(=O)[C@H](C)NC(=O)[C@H](CCCCN)NC(=O)[C@H](CCC(N)=O)NC(=O)[C@H](C)NC(=O)[C@@H](NC(=O)[C@H](CCCCN)NC(=O)[C@H](CC(=O)O)NC(=O)[C@H](CC(C)C)NC(=O)C(C)(C)NC(=O)[C@@H](NC(=O)[C@H](CO)NC(=O)[C@H](Cc1ccc(O)cc1)NC(=O)[C@H](CC(=O)O)NC(=O)[C@H](CO)NC(=O)[C@@H](NC(=O)[C@H](Cc1ccccc1)NC(=O)[C@@H](NC(=O)CNC(=O)[C@H](CCC(=O)O)NC(=O)C(C)(C)NC(=O)[C@@H](N)Cc1ccc(O)cc1)[C@@H](C)O)[C@@H](C)O)[C@@H](C)CC)[C@@H](C)CC)C(C)C)C(=O)N[C@@H](C)C(=O)NCC(=O)NCC(=O)N1CCC[C@H]1C(=O)N[C@@H](CO)C(=O)N[C@@H](CO)C(=O)NCC(=O)N[C@@H](C)C(=O)N1CCC[C@H]1C(=O)N1CCC[C@H]1C(=O)N1CCC[C@H]1C(=O)N[C@@H](CO)C(N)=O [Non-acylated Tirzepatide, reference compound] | 96.1 ± 10.8% | 92.2 ± 1.7% |  |
| CC[C@H](C)[C@H](NC(=O)[C@H](CC(C)C)NC(=O)[C@H](Cc1c[nH]c2ccccc12)NC(=O)[C@H](CCC(N)=O)NC(=O)[C@@H](NC(=O)[C@H](Cc1ccccc1)NC(=O)[C@H](C)NC(=O)[C@H](CCCCNC(=O)COCCOCCNC(=O)COCCOCCNC(=O)CC[C@H](NC(=O)CCCCCCCCCCCCCCCCCCC(=O)O)C(=O)O)NC(=O)[C@H](CCC(N)=O)NC(=O)[C@H](C)NC(=O)[C@@H](NC(=O)[C@H](CCCCN)NC(=O)[C@H](CC(=O)O)NC(=O)[C@H](CC(C)C)NC(=O)C(C)(C)NC(=O)[C@@H](NC(=O)[C@H](CO)NC(=O)[C@H](Cc1ccc(O)cc1)NC(=O)[C@H](CC(=O)O)NC(=O)[C@H](CO)NC(=O)[C@@H](NC(=O)[C@H](Cc1ccccc1)NC(=O)[C@@H](NC(=O)CNC(=O)[C@H](CCC(=O)O)NC(=O)C(C)(C)NC(=O)[C@@H](N)Cc1ccc(O)cc1)[C@@H](C)O)[C@@H](C)O)[C@@H](C)CC)[C@@H](C)CC)C(C)C)C(=O)N[C@@H](C)C(=O)NCC(=O)NCC(=O)N1CCC[C@H]1C(=O)N[C@@H](CO)C(=O)N[C@@H](CO)C(=O)NCC(=O)N[C@@H](C)C(=O)N1CCC[C@H]1C(=O)N1CCC[C@H]1C(=O)N1CCC[C@H]1C(=O)N[C@@H](CO)C(N)=O [Tirzepatide, reference compound] | 84.1 ± 5% | 87.1 ± 7.6% | 86.3 nM |
